Source: patent US20190322632A1, “HRI ACTIVATORS USEFUL FOR THE TREATMENT OF CARDIOMETABOLIC DISEASES” (UNIVERSITAT DE BARCELONA, priority 2016, published 2019)

What was measured:
mice fed a HFD = test: HFD-induced steatosis in mice (ORO and H&E liver staining, hepatic triglyceride levels); type: in vivo; settings: HFD three weeks, 70 mg kg^−1 day^−1 i.p. daily for the last week
Text: FIG. 8. (A) Oil Red O and eosin-hematoxylin (H&E) staining of livers of mice fed a standard chow (CT), a HFD for three weeks (HFD) or a HFD for three weeks plus BTdCPU during the last week (HFD+BTdCPU). (B) Liver triglyceride levels. Data are presented as the mean±SD (n=6 per group). *p<0.05 vs. mice fed a standard diet (CT). ^#p<0.05 vs. mice fed a HFD. G: glucose. TG: triglyceride.
Inventors examined whether the treatment with an HRI activator (BTdCPU) prevented the development of steatosis induced by a HFD. Histological analysis of a liver biopsy remains the gold standard for assessing the degree of steatosis. ORO staining and eosin-hematoxylin (H&E) staining of liver sections were performed. Mice fed a standard chow and half of the mice fed the HFD received one daily i.p. administration of DMSO (vehicle) for the last week. The rest of the mice fed the HFD received one daily i.p. administration of BTdCPU (70 mg kg^−1 day^−1) for the last week. […] Finally, hepatic lipids were extracted and hepatic triglyceride levels were assessed by using a commercially available kit (TR0100, Sigma). […] Overall, these findings indicate that HRI activation prevents HFD-induced steatosis.

human Huh-7 hepatocytes = test: Palmitate-induced triglyceride accumulation in hepatocytes (Oil Red O staining); type: cell-based; settings: Huh-7 cells, 24 h, 0.75 mmol/L palmitate plus 10 μmol/L compound; FIG. 5
Protocol: To examine the effects of HRI activators on triglyceride accumulation and insulin signaling in hepatocytes, the N,N′-diarylurea BTdCPU was used. HRI is a kinase that phosphorylates eIF2α at its Ser 51 residue to execute protein synthesis regulation and thereby HRI activators cause the phosphorylation of eIF2α as previously described (Chen T. et al., ibid). First, the effect of BTdCPU on human Huh-7 hepatocytes exposed to the saturated fatty acid palmitate was explored. Huh-7 cells were incubated for 24 h with BSA (Control, CT), 0.75 mmol/L palmitate (Pal) conjugated with BSA or 0.75 mmol/L palmitate plus 10 μmol/L BTdCPU (Pal+BTdCPU). Then, they were stained with Oil Red O that allows selective detection of neutral lipids (primarily triglyceride and cholesterol esters) within Huh-7 cells.

Akt = test: Insulin signalling in hepatocytes (insulin-stimulated Akt phosphorylation, immunoblot); type: cell-based, human; settings: Huh-7 cells, 24 h, 0.75 mmol/L palmitate plus 10 μmol/L compound, 100 nmol/L insulin last 10 min; FIG. 6
Protocol: (B). When indicated (+), cells were incubated with 100 nmol/L insulin (I) for the last 10 min. Data are presented as the mean±SD (n=4 per group). ***p<0.001 and *p<0.05 vs. control cells not exposed to insulin. ^###p<0.001 and ^##p<0.01 vs. insulin-stimulated control cells. ^554 \\p<0.001 vs. insulin-stimulated cells incubated with palmitate. Ins: insulin.
Inventors examined the insulin signalling pathway by measuring insulin-stimulated Akt phosphorylation. Huh-7 cells were incubated for 24 h with BSA (Control, CT), 0.75 mmol/L palmitate (Pal) conjugated with BSA, or 0.75 mmol/L palmitate plus 10 μmol/L BTdCPU (Pal+BTdCPU). Immunoblot analyses of total and phosphorylated Akt was carried out.

[1] = tested on: mice fed a high-fat diet (HFD); test: Glucose tolerance test in mice fed a high-fat diet; type: in vivo; settings: HFD three weeks, 70 mg kg^−1 day^−1 i.p. daily for the last week, FIG. 7
Text: Data are presented as the mean±SD (n=6 per group). *p<0.05 vs. mice fed a standard diet (CT). #p<0.05 vs. mice fed a HFD. G: glucose.
T2DM is characterized by glucose intolerance, which is contributed to by peripheral (muscle, fat, and liver) insulin resistance as well as islet […] dysfunction (cf. Andrikopoulos S. et al., “Evaluating the glucose tolerance test in mice”, Am. J. Physiol. Endocrinol. Metab., 2008, vol. 295, pp. E1323-32). The glucose tolerance test (GTT) is used in clinical practice and research to identify individuals with impaired glucose tolerance by assessing the disposal of a glucose load. It is important to acknowledge that the GTT is the only means of identifying impaired glucose tolerance, which is considered a prediabetic state (cf. Andrikopoulos S. et al., ibid). The standard presentation of results from GTTs is a description of blood glucose levels over time after the glucose administration. Generally, a time course of absolute glucose levels is presented. When using diabetic or insulin-resistant models (such as the HFD-fed mouse), a time course of absolute glucose levels should still be presented along with a calculation of the AUC above baseline glucose. In this assay, the effect of the BTdCPU compound on glucose tolerance in mice fed a high-fat diet (HFD) was examined. […]

FGF21 = FGF21 expression in hepatocytes (quantitative real-time RT-PCR); type: cell-based, human; settings: Huh-7 hepatocytes, 24 h, 10 μM; FIG. 9
Protocol: Human Huh-7 hepatocytes were incubated for 24 h in the absence (Control, CT) or in the presence of compounds (10 μM). Assessment by quantitative real-time RT-PCR of FGF21. Data are presented as the mean±SD (n=4 per group). ***p<0.001 and **p<0.01 vs CT. ^###p<0.001, ^##p<0.01 and ^#p<0.05 vs BTCtFPU. ^††p<0.01 and ^†p<0.05 vs BTdCPU. BTCtFPU=1-(benzo[d][1,2,3]thiadiazol-6-yl)-3-(4-chloro-3-(trifluoromethyl)phenyl)urea (compound (3) in Chen T. et al., ibid.).

## O=C(Nc1ccc(Cl)c(Cl)c1)Nc1ccc2nnsc2c1 [BTdCPU, 1-(benzo[d][1,2,3]thiadiazol-6-yl)-3-(3,4-dichlorophenyl)urea]
Mice fed a HFD; FIG. 8A
  hepatic steatosis (ORO and H&E staining): hepatic steatosis was reversed
Mice fed a HFD; FIG. 8B
  hepatic triglyceride levels: increase was completely blunted
Human Huh-7 hepatocytes
  palmitate-induced triglyceride accumulation (Oil Red O staining): accumulation was prevented
Akt
  insulin-stimulated Akt phosphorylation: partially restored the reduction in insulin-stimulated Akt phosphorylation caused by palmitate
[1]
  glucose tolerance test AUC above baseline glucose: prevented the increase in the AUC above baseline glucose
FGF21
  FGF21 expression compared with BTCtFPU: significant higher increase than compound BTCtFPU
